Earlier results on two substances are cited in article PMC6099957, “Mouse β-Defensin 3, A Defensin Inhibitor of Both Its Endogenous and Exogenous Potassium Channels” (Molecules : A Journal of Synthetic Chemistry and Natural …, 2018).

As usually defined, the IC50 is the concentration that gives 50% inhibition.

No end group written: not given here.

The subject of the data set is Kv1.3. The settings on record: read-out: IC50 as Kv1.3 inhibitor; cited from earlier work. The text has this:
Here, the Kv1.3 channel-sensitive hBD2 was used as the molecular template to search potential mouse β-defensin from the biological databases. […] Besides the sequence similarity, the distribution of six cysteine amino acid residues was also identical. In order to better understand the structural feature of mBD3, its structure was modeled by the tem ...

Regarding human β-defensin 2 [hBD2], the IC50 was 2.2e-05 µM.

“hBD1: human β-defensin, Kv1.3 channel blocker binding the pore region (DHYNCVSSGGQCLYSACPIFTKIQGTCYRGKAKCCK; ends and bridges not checked; cysteine pairing not given here; UniProt P60022 33-68, looked up)”: the IC50 was 11.8 µM.
